Results taken from BigSolDB 2.1.

C=C(C)[C@@H]1CC[C@]2(CO)CC[C@]3(C)[C@H](CC[C@@H]4[C@@]5(C)CC[C@H](O)C(C)(C)[C@@H]5CC[C@]43C)[C@@H]12
solubility (mole fraction)
Conditions	278.2 K	283.2 K	288.2 K	298.2 K	308.2 K
in acetone	0.000556	–	0.000866	0.00158	0.00227
in chloroform	0.0026	–	0.00338	0.00437	0.00511
in cyclohexane	–	1.68e-05	2.7e-05	6.34e-05	0.000167
in dichloromethane	0.00079	0.000837	0.000897	0.000991	–
in ethanol	0.000579	–	0.000658	0.000898	0.00113
in ethyl acetate	0.000963	–	0.00155	0.00207	0.00305
in ethyl formate	0.000301	–	0.000316	0.000333	0.000395
in methanol	0.000179	–	0.000248	0.000328	0.000397
in methyl acetate	0.000598	–	0.000705	0.000797	0.000917
in methyl formate	0.000187	0.000212	0.000257	0.000316	–
in n-butanol	0.00181	–	0.00213	0.00238	0.00271
in n-hexanol	0.000744	–	0.000846	0.00102	0.00127
in n-pentanol	0.00095	–	0.0012	0.00143	0.00171
in n-propanol	0.00113	–	0.00127	0.00146	0.0016
